Measured values published in US9700533B2, “Maternal chelation for embryo, fetal and infant benefit” (priority 2005, dated 2017).
Where two headings read alike, the source gives them in different places.

What was measured:
[1] = Chelation-provoked urine test, urinary cadmium; type: in vivo, human
Description: (§1) The terms “diagnostic provocation” and “chelation-provoked urine tests” and related terms refer to a procedure whereby the patient is administered one of more dosages of chelators, after which the patient's urine is collected for a defined period of time. The collected urine is analyzed for metal content, the metal having been removed from the patient's body by the chelators. The results of this procedure can indicate which metals are present in the patient's body and the approximate levels of the metals, which is subsequently used in designing a course of chelation therapy.
(§2) The metals may be measured with or without prior chelation provocation. The standard values accepted by medical laboratories are measured without chelation provocation. Treatment with chelation medication mobilizes metal stores within in the body to be detected in the urine, thus values obtained post-provocation will be increased.

[2] = Chelation-provoked urine test, urinary tin; type: in vivo, human; details: for urinary tin: Case 14
Description: as §1, §2

[3] = Chelation-provoked urine test, urinary nickel; type: in vivo, human
Description: as §1, §2

[4] = Chelation-provoked urine test, urinary uranium; type: in vivo, human; details: for urinary uranium, times the reference range: Case 9
Description: as §1, §2

[5] = Maternal chelation treatment, pregnancy, child and patient outcome; type: in vivo, human; details: for chronic fatigue / neurological development of the baby: Case 5; for chronic fatigue: calcium EDTA + vitamin C IV together with oral DMSA; for neurological development of the baby: parent treated preconceptionally with calcium EDTA + vitamin C IV and oral DMSA
[6] = not given; remark: listed apart in the source
[7] = Case 5
Description: as §1, §2

[8] = Case 14
Description: as §1, §2

[9] = Case 14; remark: listed apart in the source
Description: as §1, §2

[10] = Chelation-provoked urine test, urinary lead
Description: as §1, §2

[11] = Chelation-provoked urine test, metals revealed (in words); details: for metals excreted on provocation: Case 9, postpartum
Description: as §1, §2

[12] = Chelation-provoked urine test, urinary tungsten; type: in vivo, human; details: Case 7, 6 hour urine
Description: as §1, §2

[13] = Case 5, EDTA provocation, before treatment
[14] = Case 13, 3 grams EDTA and 3 grams vitamin C intravenous push, 6 hour collection
[15] = Case 14, EDTA series, June 2004 after intravenous EDTA and DMPS chelation treatments
[16] = Case 14, EDTA series, long-term follow up October 2005 after a little DMSA with essential daily defense
[17] = Case 14, intravenous EDTA provocation January 2004, during the treatment period
[18] = EDTA series, June 2004 after intravenous EDTA and DMPS chelation treatments
[19] = EDTA series, long-term follow up October 2005 after a little DMSA with essential daily defense
[20] = intravenous EDTA provocation January 2004, during the treatment period
[21] = Case 5, EDTA provocation, previously (before treatment)
[22] = 3 grams calcium EDTA in 100 cc NS over 30 minutes, 6 hour urine
[23] = Case 4, after 4 months oral DMSA, 4 x 250 mg three times daily, 3 days per week
[24] = Case 4, four capsules DMSA 250 mg, 6 hour urine, before treatment
[25] = Case 2, oral DMSA 250 mg three times a day, 24 hour urine
[26] = Case 7, one 250-mg capsule DMSA orally, 6 hour urine
[27] = DMSA 1000 mg PO x1, 6 hour urine
[28] = Case 14, DMPS provocation October 2003, before treatment
[29] = Case 14, DMPS series, follow up October 2005 after oral DMSA and essential daily defense
[30] = Case 14, after series of intravenous DMPS chelation treatments October 2003 to May 2004
[31] = DMPS provocation October 2003, before treatment
[32] = DMPS series, follow up October 2005 after oral DMSA and essential daily defense
[33] = after series of intravenous DMPS chelation treatments October 2003 to May 2004
[34] = Case 7, one 300-mg capsule DMPS, 6 hour urine
[35] = Case 5, DMPS chelation provocation, before treatment
[36] = Case 5, DMPS provocation, previously (before treatment)

For `O=C(O)CN(CCN(CC(=O)O)CC(=O)O)CC(=O)O` [EDTA, Ethylenediamine Tetra-acetic Acid], the urinary cadmium [1, 13] was 3.18 (normal <0.76) mcg/g creatinine, the urinary cadmium [1, 14] was 0.86 mcg/g creatinine and the urinary cadmium [1, 15] was 1.75 mcg/g creatinine. For the same compound, the urinary cadmium [1, 16] was 2.66 mcg/g creatinine, the urinary cadmium [1, 17] was 1.59 mcg/g creatinine and the urinary tin [2, 18] was 0.3 mcg/g creatinine. The urinary tin [2, 19] was 0.4 mcg/g creatinine, the urinary tin [2, 20] was 0.6 mcg/g creatinine and the urinary nickel [3, 13] was 36.9 (normal <9.5) mcg/g creatinine. For the same compound, the “urinary nickel, times normal” value [3, 21] was 4 × normal, the “urinary nickel, times normal” value ([3]; Case 5, repeat EDTA provocation after calcium EDTA + vitamin C IV and oral DMSA treatment) was 3 × normal and the urinary nickel [3, 15] was 30 mcg/g creatinine. For the same compound, the urinary nickel [3, 16] was 26 mcg/g creatinine, the urinary nickel [3, 17] was 41 mcg/g creatinine and the urinary uranium [4, 13] was 0.33 (normal <0.013) mcg/g creatinine. For the same compound, the “urinary uranium, times the reference range” value [4, 22] was greater than 40 × the reference range, the urinary uranium [4, 16] was 0.012 mcg/g creatinine and the “child outcome after delivery” value ([5]; Case 8, oral EDTA 3000 mg per day with vitamin C, selenium and garlic) was “healthy and neurologically normal”. The delivery outcome ([5]; Case 8, parent with lead and mercury, oral EDTA 3000 mg per day with vitamin C 5000 mg per day, selenium 200 micrograms three times per day, garlic 6000 mg per day) was “normal delivery with no evidence of fetal distress”, the “neurological development of the child” value ([5]; Case 13, child, parents had ten intravenous EDTA chelations) was “admirable neurological development” and the urinary mercury [14] was 3.09 mcg/g creatinine. For the same compound, the urinary mercury [15] was 0 mcg/g creatinine, the urinary mercury [16] was 9.4 mcg/g creatinine and the urinary mercury [17] was 0 mcg/g creatinine. It also gave a urinary antimony [6, 15] of 0.15 mcg/g creatinine, a urinary antimony [6, 16] of 0.09 mcg/g creatinine and a urinary antimony [6, 17] of 0.18 mcg/g creatinine. The urinary aluminum ([7]; EDTA provocation, before treatment) was 176.8 (normal <98.7) mcg/g creatinine, the “urinary aluminum, times normal” value ([7]; EDTA provocation, previously (before treatment)) was 2 × normal and the “urinary aluminum, times normal” value ([7]; repeat EDTA provocation after calcium EDTA + vitamin C IV and oral DMSA treatment) was 0.2 × normal. It also gave a urinary arsenic [8, 18] of 32 mcg/g creatinine, a urinary arsenic [8, 19] of 46 mcg/g creatinine and a urinary arsenic [8, 20] of 90 mcg/g creatinine. For the same compound, the urinary thorium [9, 18] was 0.06 mcg/g creatinine, the urinary thorium [9, 19] was 0 mcg/g creatinine and the urinary thorium [9, 20] was 0.22 mcg/g creatinine. The urinary lead [10, 13] was 25.14 (normal <1.41) mcg/g creatinine, the “urinary lead, times normal” value [10, 21] was 18 × normal and the “urinary lead, times normal” value ([10]; Case 5, repeat EDTA provocation after 3 g calcium EDTA + 3 g vitamin C IV two times per week and DMSA 500 mg per day orally) was 8 × normal. For the same compound, the urinary lead [10, 14] was 6.15 mcg/g creatinine, the urinary lead [10, 15] was 5.5 mcg/g creatinine and the urinary lead [10, 16] was 7.97 mcg/g creatinine. The urinary lead [10, 17] was 4.6 mcg/g creatinine, the “metals excreted on provocation” value [11, 22] was “significant excretion of lead, mercury, cadmium and uranium” and the “metals revealed on provocation” value ([11]; Case 11, 3 grams calcium EDTA in 100 cc normal saline IV over 30 minutes, 6 hour urine) was “elevated levels of lead, mercury, aluminum, cadmium, gadolinium, gallium, tin, tungsten, and uranium”.

In the case of `O=C([O-])CN(CCN(CC(=O)[O-])CC(=O)[O-])CC(=O)[O-].[Ca+2].[Na+].[Na+]` [calcium EDTA], the chronic fatigue [5] is reported as “chronic fatigue improved” and the “neurological development of the baby” value [5] is reported as “above average neurological development”.

With `O=C(O)C(S)C(S)C(=O)O` (stereo not shown) [DMSA, Dimercaptosuccinic Acid] the “urinary cadmium, follow up provocation” value [1, 23] was 0.18 mcg/g creatinine, the provoked urinary cadmium [1, 24] was 1.79 mcg/g creatinine and the “urinary tin after provocation” value [2, 25] was 9 mcg/g creatinine. The “urinary tin, follow up provocation” value [2, 23] was 0.9 mcg/g creatinine, the provoked urinary tin [2, 24] was 12.5 mcg/g creatinine and the urinary nickel [3, 26] was 77 (normal <9.5) mcg/g creatinine. The urinary uranium [4, 26] was 0.05 (normal <0.031) mcg/g creatinine, the “urinary uranium, times the reference range” value [4, 27] was greater than 100 × the reference range and the urinary tungsten ([12]; one 250-mg capsule DMSA orally) was 6.41 (normal <0.34) mcg/g creatinine. For the same compound, the “chronic fatigue during treatment” value ([5]; Case 4, during 4 months oral DMSA) was “chronic fatigue resolved”, the chronic fatigue [5] was “chronic fatigue improved” and the “neurological development of the baby” value [5] was “above average neurological development”. The “follow-up chelation-provoked urine, total body lead” value ([10]; Case 1, after 15 cycles DMSA three capsules three times a day, three days a week) was “a decrease in total body lead”, the “urinary lead concentration on provocation” value ([10]; Case 1, oral DMSA 250 mg three times a day, 24 hour urine) was 20 mcg/g creatinine and the “urinary lead concentration after provocation” value [10, 25] was 14 mcg/g creatinine. The “urinary lead, follow up provocation” value [10, 23] was 1.34 mcg/g creatinine, the provoked urinary lead [10, 24] was 13.6 mcg/g creatinine and the urinary lead [10, 26] was 4.79 (normal <1.41) mcg/g creatinine. For the same compound, the “metals revealed by chelation-provoked urine test” value ([11]; Case 6, oral DMSA challenge three days after delivery) was “presence of both lead and mercury”, the “metals excreted on provocation” value [11, 27] was “excretion of a number of metals, including lead, mercury, cadmium and uranium” and the “metals revealed on challenge” value ([11]; Case 10, DMSA 250 mg PO x1, 6 hour urine) was “elevated amounts of lead, aluminum, antimony, barium, nickel, gallium, tin, tungsten, and uranium”. For the same compound, the “metals revealed on provocation” value ([11]; Case 11, 1000 mg DMSA orally x1, 6 hour urine) was “elevated levels of lead, mercury, tin, uranium and tungsten”.

In the case of `O=S(=O)(O)CC(S)CS` (stereo not shown) [DMPS, Dimercaptopropanesulfonic Acid], the urinary cadmium [1, 28] is reported as 0.82 (normal <0.64) mcg/g creatinine, the urinary cadmium [1, 29] is reported as 0.17 mcg/g creatinine and the urinary cadmium [1, 30] is reported as 0.16 mcg/g creatinine. For the same compound, the urinary tin [2, 31] was 10.4 (normal <2.04) mcg/g creatinine, the urinary tin [2, 32] was 3.03 mcg/g creatinine and the urinary tin [2, 33] was 0.4 mcg/g creatinine. For the same compound, the urinary nickel [3, 34] was 132 (normal <9.5), the urinary nickel [3, 28] was 9.3 (normal <9.5) mcg/g creatinine and the urinary nickel [3, 29] was 0.7 mcg/g creatinine. For the same compound, the urinary nickel [3, 30] was 3.2 mcg/g creatinine, the urinary uranium [4, 34] was 0.034 (normal <0.013) and the urinary uranium [4, 28] was 0.042 (normal <0.026) mcg/g creatinine. The urinary uranium [4, 29] was 3 mcg/g creatinine, the urinary uranium [4, 30] was 0 mcg/g creatinine and the urinary tungsten ([12]; one 300-mg capsule DMPS) was 7.07 (normal <0.34). The urinary mercury [35] was 38.55 (normal <6.97) mcg/g creatinine, the “urinary mercury, times normal” value [36] was 5 × normal and the urinary mercury [28] was 7.3 (normal <2.14) mcg/g creatinine. The urinary mercury [29] was 4.6 mcg/g creatinine, the urinary mercury [30] was 6 mcg/g creatinine and the urinary antimony [6, 35] was 0.84 (normal <0.14) mcg/g creatinine. For the same compound, the “urinary antimony, times normal” value [6, 36] was 6 × normal, the urinary antimony [6, 28] was 0.48 (normal <0.14) mcg/g creatinine and the urinary antimony [6, 29] was 0.18 mcg/g creatinine. For the same compound, the urinary antimony [6, 30] was 0.05 mcg/g creatinine, the urinary arsenic [8, 31] was 159 (normal <50) mcg/g creatinine and the urinary arsenic [8, 32] was 34 mcg/g creatinine. For the same compound, the urinary arsenic [8, 33] was 20 mcg/g creatinine, the urinary thorium [9, 31] was 0 (normal <0.124) mcg/g creatinine and the urinary thorium [9, 32] was 0 mcg/g creatinine. The urinary thorium [9, 33] was 0.019 mcg/g creatinine, the urinary lead [10, 35] was 6.39 (normal <1.41) mcg/g creatinine and the “urinary lead, times normal” value [10, 36] was 4 × normal. For the same compound, the urinary lead [10, 34] was 4.6 (normal <1.41), the urinary lead [10, 28] was 7.9 (normal <1.41) mcg/g creatinine and the urinary lead [10, 29] was 2.6 mcg/g creatinine. The urinary lead [10, 30] was 0.9 mcg/g creatinine, the “metals revealed on provocation” value ([11]; Case 10, DMPS 300 mg PO x1, 6 hour urine) was “elevated levels of lead, mercury, aluminum, antimony, cadmium, nickel, tin, tungsten and uranium” and the “metals revealed on provocation” value ([11]; Case 12, DMPS 300 mg PO x2, 6 hour urine) was “marked elevation of nickel as well as abnormally elevation of arsenic, cadmium and lead”.

For `CC(=O)N[C@@H](CS)C(=O)O` [NAC, N-Acetyl-Cysteine], the “outcome of subsequent child” value ([5]; Case 3, 500 mg oral NAC per day throughout pregnancy, also vitamin C and selenium, previous child with attention deficit disorder) was “did not have attention deficit disorder”.
